From patent US8420778B2, “Tripeptides and derivatives thereof for cosmetic application in order to improve skin structure” (DSM IP Assets B.V., priority 2003, dated 2013)

Tested on: Collagen Type I Synthesis in Fibroblast Cell Cultures
Assay: Collagen stimulation by ELISA: stimulation of collagen type I synthesis in fibroblast cell cultures
Format: cell-based
Settings: human skin fibroblasts, 72 h incubation
Description: Type I collagen of in-vitro cultured skin fibroblasts was detected with an ELISA (Enzyme-Linked Immunosorbent Assay). The increase in the collagen production of the cells was quantified in the presence of the peptidic actives by using this method. Human skin fibroblasts were isolated from foreskin and bred in culture medium. After 72 h of incubation with the corresponding peptides (actives) the quantitative determination was performed using an antibody specific for collagen I. [table] The 1st AB (MAB1340; Chemicon) and the 2nd AB (31430; Socochim S.A.) are diluted 1/500 with AB dilution solution. The fibroblasts are incubated until confluent at a density of approx. 5000 cells per well in 96 well-plates in culture medium (37° C./5% CO2) for 3 days. The medium is replaced with test medium with three different concentrations of test substance in triplicate. The following controls are tested on each plate: [table] After incubation of the plates for further 72 hours, the precipitated collagen I is detected and quantified according to the following protocol: • discard medium and wash with 200 μl/well of PBS • fix with 100 μl/well of methanol for 15 min at RT/shaker 600 rpm • discard methanol and block with 200 μl/well of milk solution for 30 min at RT/shaker 600 rpm • discard milk solution and incubate with 100 μl/well of the 1st AB dilution for 2 h at RT/shaker 600 rpm • discard 1st AB dilution and wash 3× with 200 μl/well of washing buffer • incubate with 100 μl/well of the 2nd AB dilution for 3 h at RT/shaker 600 rpm • discard 2nd AB dilution; wash 3× with 200 μl/well of washing buffer and 1× with 100 μl/well of PBS • add 100 μl/well of substrate solution for 20 min at RT/shaker 600 rpm • stop the reaction with 50 μl/well of H2SO4 (2M) and measure at 492 nm.

| Substance | % Stimulation (Conc. 25 µmol/L) [%] | % Stimulation (Conc. 50 µmol/L) [%] | other results |
| --- | --- | --- | --- |
| Elaidoyl-Lys-Phe-Lys-OH *2AcOH [Reference compound A, reference compound] | – | – | % Stimulation (Conc. 0.01 µmol/L): 23%; % Stimulation (Conc. 20.0 µmol/L): 43% |
| Elaidoyl-Lys-Thr-Lys-OH*2TFA [Example 4] | 104 | – | – |
| H-Lys-Thr-Lys-OH*3TFA [Example 5] | – | 35 | – |
| H-Lys-Val-Lys-NH-Cetyl*3TFA [Example 7] | – | – | % Stimulation (Conc. 100 µmol/L): 61% |
| H-Lys-Val-Lys-O-Octyl*3TFA [Example 8] | 31 | – | – |
| Palm-Lys-Val-Lys-OH *2AcOH [No 4] | – | 48 | – |
